Experiments:
Assay type in all cases: cell-based
[1] = tested on: CMK 6.4 cynomolgus monkey ES cells; test: Screening of agents which promote cardiac muscle cell differentiation of monkey ES cells (α-MHC promoter-GFP, HCS); settings: 96-well, about 1-5 μM compound/well added day 6-14, read at day 14 of culture
Method: As described in FIG. 1, screening of agents which promote cardiac muscle cell differentiation of monkey ES cells was performed. A vector expressing green fluorescent protein (GFP) under control of a promoter of a-MHC gene, a marker of cardiac muscle cell differentiation, was introduced into monkey ES cell line (CMK 6.4 cynomolgus monkey ES cells) and the cells were seeded on 96-well culture plates (Greiner/655090: 96 well FIA black plate) in 5.0×10^2 cells/well, and cultured for 14 days in a differentiation medium for cardiac muscle cell differentiation (200 ml IMDM (Sigma 13390) containing 50 ml bovine fetal serum (GIBCO 10099-141), 2.5 ml MEM non-essential amino acid solution (Sigma M7145), 2.5 ml penicillin-streptomycin (GIBCO 15140), 2.5 ml 200 mM L-glutamine, 2 μl 2-mercaptoethanol (Sigma M7522), 255 μl 5N NaOH 255 μl). During day 6-14 of culture, 9,600 library compounds were added into separate wells (about 1-5 μM compound/well). Then, at day 14 of culture, GFP expression was determined by using HCS (high contents screening) system (Molecular device/MetaMorph imaging system). As a result, GFP fluorescence intensity was high in the wells added with nitrovin (FIG. 2).

[2] = tested on: CMK 6.4 cynomolgus monkey ES cells; test: Effect of nitrovin for promoting cardiac muscle cell differentiation of monkey ES cells
Method: As described in Example 1, a vector expressing green fluorescent protein (GFP) was introduced into monkey ES cell line (CMK 6.4 cynomolgus monkey ES cells). The monkey ES cells were seeded and cultured on 6-well culture plates (Asahi Glass/5816-006: Ezview culture plate) in 4.0×10^6 cells/well. The culture medium was the same as described in Example 1. At day 6 of culture, nitrovin was added at a final concentration of 1 μM, 5 μM, or 20 μM. At day 18 of culture, fluorescence intensity of GFP and number of beating colonies of cardiac muscle cells were determined. When nitrovin was added, the fluorescence intensity and number of beating colonies increased up to about 5 times and about 10 times higher, respectively (FIGS. 3-1 and 3-2).

[3] = tested on: human ES cell line (Kh−1); test: Effect of nitrovin for promoting cardiac muscle cell differentiation of human ES cells; settings: nitrovin 1, 5 or 20 μM added at day 6, read at day 18
Method: As described in Example 1, a vector expressing green fluorescent protein (GFP) was introduced into human ES cell line (Kh−1). The human ES cells were seeded and cultured on 6-well culture plates (Asahi Glass/5816-006: Ezview culture plate) in 1.2×10^6 cells/well. The culture medium was the same as described in Example 1. At day 6 of culture, nitrovin was added at a final concentration of 1 μM, 5 μM, or 20 μM. At day 18 of culture, fluorescence intensity of GFP was determined.

[4] = tested on: CMK 6.4 cynomolgus monkey ES cells; test: Comparison of nitrovin and cytokines in cardiac muscle cell differentiation of monkey ES cells; settings: nitrovin 5 μM day 6-14; cytokines (bFGF, BMP4, VEGF, DKK1, Activin A) day 1-14; read at day 18
Text: Nitrovin and a mixture of cytokines (bFGF, BMP4, VEGF, DKK1, and Activin A) known as a promoter of cardiac muscle cell differentiation were compared as to increase of GFP fluorescence intensity, number of beating colonies of cardiac muscle cells, and expression of Troponin T, a marker of cardiac muscle cell differentiation.
As described in Example 1, a vector expressing green fluorescent protein (GFP) was introduced into monkey ES cell line (CMK 6.4 cynomolgus monkey ES cells). The culture medium was the same as described in Example 1. The monkey ES cells were seeded on 6-well culture plates and nitrovin (final concentration: 5 μM) or a mixture of cytokines (bFGF, BMP4, VEGF, DKK1, and Activin A) (final concentration: 5 ng/ml, 10 ng/ml, 10 ng/ml, 150 ng/ml, and 3 ng/ml, respectively) was added during day 6-14 of culture (nitrovin) or day 1-14 of culture (cytokines).

[5] = nitrovin 1, 5 or 20 μM added at day 6, read at day 18, maximal increase vs control (DMSO)

SMILES: N=C(N)NN=C(/C=C/c1ccc([N+](=O)[O-])o1)/C=C/c1ccc([N+](=O)[O-])o1 [nitrovin]
- GFP fluorescence intensity (GFP expression under α-MHC promoter) [1]: high
- most effective final concentration ([2]; among 1, 5 and 20 μM, GFP fluorescence intensity and beating colonies at day 18): 5 µM
- increase of GFP fluorescence intensity [2, 5]: about 5 times
- increase of number of beating colonies of cardiac muscle cells [2, 5]: about 10 times
- GFP fluorescence intensity [3]: increase of GFP fluorescence intensity induced by nitrovin was also observed
- GFP fluorescence intensity compared to the mixture of cytokines [4]: highly effective
- expression level of Troponin T compared to the mixture of cytokines [4]: highly effective
- number of beating colonies compared to the mixture of cytokines [4]: highly effective

Source: patent US20120244619A1, “COMPOSITION FOR PROMOTING DIFFERENTIATION OF PLURIPOTENT STEM CELLS INTO CARDIAC MUSCLE CELLS WHICH COMPRISES NITROVIN” (KYOTO UNIVERSITY, priority 2009, published 2012)
